From patent publication US20120202701A1, “AN ANTIBODY-GLYCAN COMPLEX TARGETING THE DISIALYL CORE II AND SIALYL LEWIS X STRUCTURES, AND USES THEREOF INVOLVING ANALYSIS OF STEM CELLS OR CANCER CELLS” (GLYKOS FINLAND OY, priority 2009, published 2012)

Tested on: mAb CHO-131
Assay: Glycan microarray analysis (Consortium for Functional Glycomics, printed array version 4.0), glycan binding of mAb CHO-131
Conditions: glycan microarray, as described
Description: (§1) mAb CHO-131 was purchased from R&D Systems (MAB996). mAb CSLEX was purchased form BD Biosciences (551344). Glycan microarray analysis was carried out by the Consortium for Functional Glycomics. Glycan microarrays were printed as described (Blixt 2004). Version 4.0 of the printed glycan array was used for analysis. Binding analysis was performed at 50 μg/ml of antibody. Data are reported as average RFU of 6 replicates after removal of highest and lowest values.

Row | binding to CHO-131 antibody, in words | SMILES
1 | some binding | CC(=O)N[C@H]1[C@H](OCCCN)O[C@H](CO)[C@@H](O)[C@@H]1O[C@@H]1O[C@H](C(=O)O)[C@@H](O)[C@H](O)[C@H]1O [Chart Number 299, GlcAb1-3GlcNAcb-Sp8, reference compound]

Same assay, conditions: mAb CHO-131 at 50 μg/ml; average RFU of 6 replicates after removal of highest and lowest values

Row | SMILES | RFU [RFU]
2 | NCCCO[C@@H]1O[C@H](COS(=O)(=O)O)[C@@H](O[C@@H]2O[C@H](CO)[C@H](O)[C@H](OS(=O)(=O)O)[C@H]2O)[C@H](O)[C@H]1O [compound 25] | 903
3 | CC(=O)N[C@H]1[C@H](OCCN)O[C@H](COS(=O)(=O)O)[C@@H](O[C@@H]2O[C@H](CO)[C@H](O)[C@H](OS(=O)(=O)O)[C@H]2O)[C@@H]1O [compound 31] | 266
4 | CC(=O)N[C@H]1[C@H](OCCCN)O[C@H](COS(=O)(=O)O)[C@@H](O[C@@H]2O[C@H](CO)[C@H](O)[C@H](OS(=O)(=O)O)[C@H]2O)[C@@H]1O [compound 32] | 584
5 | NCCCO[C@@H]1O[C@H](CO)[C@H](O)[C@H](OS(=O)(=O)O)[C@H]1O [compound 35] | 345
6 | CC(=O)N[C@H]1[C@H](OCCN)O[C@H](CO)[C@@H](O[C@@H]2O[C@H](COS(=O)(=O)O)[C@H](OS(=O)(=O)O)[C@H](O)[C@H]2O)[C@@H]1O [compound 36] | 427
7 | NCCCO[C@@H]1O[C@H](COS(=O)(=O)O)[C@@H](O[C@@H]2O[C@H](COS(=O)(=O)O)[C@H](O)[C@H](O)[C@H]2O)[C@H](O)[C@H]1O [compound 42] | 505
8 | NCCO[C@@H]1O[C@H](COS(=O)(=O)O)[C@@H](O[C@@H]2O[C@H](CO)[C@H](O)[C@H](O)[C@H]2O)[C@H](O)[C@H]1O [compound 146] | 148

Next, values leading:

Row | RFU [RFU] | SMILES
9 | 227 | NCCCO[C@H]1O[C@H](C(=O)O)[C@@H](O)[C@H](O)[C@H]1O [compound 192]
10 | 274 | NCCCO[C@@H]1O[C@H](C(=O)O)[C@@H](O)[C@H](O)[C@H]1O [compound 193]
11 | 403 | CC(=O)N[C@H]1C(OCCCN)O[C@H](COS(=O)(=O)O)[C@@H](O[C@@H]2O[C@H](CO)[C@H](O)[C@H](OS(=O)(=O)O)[C@H]2O)[C@@H]1O[C@@H]1O[C@@H](C)[C@@H](O)[C@@H](O)[C@@H]1O (stereo partly drawn) [compound 210]
12 | 1100 | C[C@@H]1O[C@@H](O[C@H]2[C@H](O[C@H]3[C@H](O)[C@@H](O)C(OCCN)O[C@@H]3COS(=O)(=O)O)O[C@H](COS(=O)(=O)O)[C@H](O)[C@@H]2O)[C@@H](O)[C@H](O)[C@@H]1O (stereo partly drawn) [compound 213]
13 | 256 | CC(=O)N[C@H]1[C@H](OCCCN)O[C@H](COS(=O)(=O)O)[C@@H](O[C@@H]2O[C@H](CO)[C@H](O)[C@H](O[C@]3(C(=O)O)C[C@H](O)[C@@H](NC(C)=O)[C@H]([C@H](O)[C@H](O)CO)O3)[C@H]2O)[C@@H]1O[C@@H]1O[C@@H](C)[C@@H](O)[C@@H](O)[C@@H]1O [compound 241]
14 | 243 | CC(=O)N[C@H]1[C@H](OCCCN)O[C@H](COS(=O)(=O)O)[C@@H](O[C@@H]2O[C@H](CO[C@]3(C(=O)O)C[C@H](O)[C@@H](NC(C)=O)[C@H]([C@H](O)[C@H](O)CO)O3)[C@H](O)[C@H](O)[C@H]2O)[C@@H]1O [compound 256]
15 | 138 | C[C@@H]1O[C@@H](O[C@H]2[C@H](O[C@@H]3O[C@H](CO)[C@H](O)[C@H](O)[C@H]3O)[C@@H](COS(=O)(=O)O)OC(OCCN)[C@@H]2O)[C@@H](O)[C@H](O)[C@@H]1O (stereo partly drawn) [compound 281]
16 | 271 | CC(=O)N[C@H]1[C@H](OCCN)O[C@H](CO)[C@@H](O[C@@H]2O[C@H](CO)[C@H](O)[C@H](O[C@]3(C(=O)O)C[C@H](O)[C@@H](NC(C)=O)[C@H]([C@H](O)[C@H](O)COC(C)=O)O3)[C@H]2O)[C@@H]1O [compound 323]
17 | 138 | CC(=O)N[C@H]1[C@H](OCCN)O[C@H](CO)[C@@H](O[C@@H]2O[C@H](CO)[C@H](O)[C@H](O[C@@H]3O[C@H](COS(=O)(=O)O)[C@@H](O)[C@H](O)[C@H]3NC(C)=O)[C@H]2O)[C@@H]1O [compound 351]
18 | 1773 | CC(=O)N[C@H]1C(OCCN)O[C@H](COS(=O)(=O)O)[C@@H](O)[C@@H]1O[C@@H]1O[C@H](COS(=O)(=O)O)[C@H](O)[C@H](O)[C@H]1O (stereo partly drawn) [compound 440]

Tested on: mAb CSLEX
Assay: Glycan microarray analysis (Consortium for Functional Glycomics, printed array version 4.0), glycan binding of mAb CSLEX
Conditions: mAb CSLEX at 50 μg/ml; average RFU of 6 replicates after removal of highest and lowest values
Description: as §1

Row | SMILES | RFU [RFU]
19 | CC(=O)N[C@H]1[C@H](OCCN)O[C@H](CO)[C@@H](O[C@@H]2O[C@H](CO)[C@H](O)[C@H](O[C@H]3O[C@H](CO)[C@H](O)[C@H](O)[C@H]3NC(C)=O)[C@H]2O[C@@H]2O[C@@H](C)[C@@H](O)[C@@H](O)[C@@H]2O)[C@@H]1O [compound 82] | 30
20 | CC(=O)N[C@H]1[C@H](O[C@H]2[C@@H](O)[C@@H](CO)O[C@H](OCCCN)[C@@H]2NC(C)=O)O[C@H](CO)[C@H](O)[C@@H]1O [compound 91] | 56
21 | CC(=O)NC1C(O)CC(OC2C(O)C(OC3C(CO)OC(OCCN)C(O)C3O)OC(CO)C2OC2OC(CO)C(O)C(OC3OC(CO)C(O)C(O)C3O)C2NC(C)=O)(C(=O)O)OC1C(O)C(O)CO (stereo not drawn) [compound 135] | 28
22 | CC(=O)N[C@H]1[C@H](O[C@@H]2[C@H](O)[C@@H](O)[C@H](O[C@H]3[C@H](O)[C@@H](O)[C@H](OCCCN)O[C@@H]3CO)O[C@@H]2CO)O[C@H](CO)[C@H](O)[C@@H]1O[C@@H]1O[C@H](CO)[C@H](O)[C@H](O)[C@H]1O [compound 136] | 58
23 | NCCCO[C@@H]1O[C@H](CO)[C@H](O)[C@H](O[C@@H]2O[C@H](CO)[C@H](O)[C@H](O)[C@H]2O)[C@H]1O [compound 137] | 37
24 | CC(=O)N[C@H]1[C@H](O[C@@H]2[C@H](O)[C@@H](O)[C@H](O[C@H]3[C@H](O[C@@H]4O[C@@H](C)[C@@H](O)[C@@H](O)[C@@H]4O)[C@@H](NC(C)=O)[C@H](OCCN)O[C@@H]3CO)O[C@@H]2CO)O[C@H](CO)[C@@H](O[C@@H]2O[C@H](CO)[C@H](O)[C@H](O)[C@H]2O)[C@@H]1O[C@@H]1O[C@@H](C)[C@@H](O)[C@@H](O)[C@@H]1O [compound 144] | 28
25 | CC(=O)N[C@H]1[C@H](O[C@H]2[C@@H](O)[C@@H](CO)O[C@@H](O[C@H]3[C@H](O)[C@@H](O)[C@H](OCCN)O[C@@H]3CO)[C@@H]2O)O[C@H](CO)[C@@H](O[C@@H]2O[C@H](CO)[C@H](O)[C@H](O)[C@H]2O)[C@@H]1O [compound 155] | 29
26 | CC(=O)N[C@H]1[C@H](OCCCN)O[C@H](CO)[C@@H](O[C@@H]2O[C@H](CO)[C@H](O)[C@H](O)[C@H]2O)[C@@H]1O [compound 161] | 34
27 | CC(=O)N[C@H]1[C@H](O[C@H]2[C@@H](O)[C@@H](CO)O[C@@H](OCCCN)[C@@H]2O)O[C@H](CO)[C@@H](O)[C@@H]1O [compound 171] | 106

Other lines, results leading:

Row | RFU [RFU] | SMILES
28 | 29 | CC(=O)N[C@H]1[C@@H](OCCCN)O[C@H](CO[C@@H]2O[C@H](CO)[C@@H](O)[C@H](O)[C@H]2NC(C)=O)[C@H](O[C@@H]2O[C@H](CO)[C@@H](O)[C@H](O)[C@H]2NC(C)=O)[C@@H]1O [compound 177]
29 | 33 | CC(=O)N[C@H]1[C@H](OCCCN)O[C@H](CO)[C@@H](O[C@@H]2O[C@H](CO)[C@H](O[C@@H]3O[C@H](CO)[C@@H](O)[C@H](O)[C@H]3NC(C)=O)[C@H](O)[C@H]2O)[C@@H]1O [compound 178]
30 | 28 | NCCCO[C@@H]1O[C@H](CO[C@@H]2O[C@H](CO)[C@@H](O)[C@H](O)[C@H]2O)[C@@H](O)[C@H](O)[C@H]1O [compound 190]
